Source: patent US20150359742A1, “COMPOSITIONS AND METHODS FOR ENHANCING THE TOPICAL APPLICATION OF A BENEFIT AGENT INCLUDING POWDER TO LIQUID PARTICLES AND A SECOND POWDER” (Johnson & Johnson Consumer Inc., priority 2014, published 2015)

Test system: Pigmented human epidermal equivalents (MelanoDerm™)
Test: In vitro test for depigmentation activity in pigmented human epidermal equivalents (MelanoDerm, MEL-300-B)
Format: cell-based
Conditions: applied topically daily for 8 days, measured on day 9
Text: Pigmented human epidermal equivalents (MelanoDerm™) from MatTek Corporation (Ashland, Mass.) were used to assess the depigmentation activity of test materials. MelanoDerm™ consists of normal, human-derived epidermal keratinocytes (NHEK) and melanocytes (NHM) which have been cultured to form a multilayered, highly differentiated model of the human epidermis. Specifically, MEL-300-B tissues, each 9 mm in diameter were used in the following tests.
The Example 2 ascorbic acid powder mixture was compared with 1% Ascorbic Acid 2-Glucoside (Hayashibara Co Ltd, Japan) in a solvent of 70% ethyl alcohol and 30% butylene glycol as a benchmark. Test materials were applied topically to the MelanoDerm™ skin model daily and the experiment lasted for 8 days. Measurement was taken on day 9. The macroscopic and microscopic visual tissue darkening end points were measured by taking pictures with a digital camera. The Degree of Lightness for each tissue (L-Value) was measured using a spectrophotometer (Konica Minolta CM-2600d). The ΔL (degree of lightness as compared to control) for each test sample is calculated as per following formula: […]
Degree of skin lightness:
ΔL*=L*-value of treated sample−L*-value of control sample.
ΔMexa Index=Melanin Index of control−Melanin Index of treated sample.

O=C1O[C@H]([C@@H](O)CO)C(O)=C1O[C@H]1O[C@H](CO)[C@@H](O)[C@H](O)[C@H]1O [1% ascorbic acid 2-glucoside in vehicle, Ascorbic Acid 2-Glucoside]
Δ Mexa Index (Melanin Index of control minus treated sample): 145.67 | Δ L-value (degree of skin lightness, treated minus control) (spectrophotometer): 2.34
